Where a name gives a salt, the structure may show the parent alone.

The term zone of inhibition denotes the extent of the growth-free halo in a diffusion test. Low values mean a weaker effect on the plate, high ones a stronger effect on the plate. What is called pKa is the pH at which an ionisable group is half protonated. Lower therefore signals a stronger acid or weaker base. Usually LD50 stands for the dose expected to kill half of the subjects tested. Read a low LD50 as greater toxicity.

Series [1] relates to Staphylococcus aureus ATCC 6538P. Briefly: Disc plate microbiological assay.
Excerpt: Th microbiological assay of the antibiotic substances is a disc plate assay using Staphylococcus aureus ATCC 6538P as test organism.
Series [2] has as its system gram positive and gram-negative bacteria. Description: In vitro antibacterial activity, Verdamicin I (in words). The series is classed as cell-based.
Series [3] concerns gram-positive and gram-negative organisms. Briefly: In vivo antibacterial activity in mice (in words). As to the method:
(§1) Verdamicin I was tested against four (4) species of infectious bacteria in mice and was administered as a single subcutaneous dose one (1) hour after infection via intraperitoneal injection of a lethal quantity of pathogen.
(§2) Results obtained with gentamicin are set for comparison.

Another series relates to Streptococcus pyogenes C. Description: Protective Activity in Mice. The series is classed as in vivo. To be noted: S.C., single dose one hour after intraperitoneal infection. Here is the method: as §1, §2
Series [4] deals with Pseudomonas aeruginosa 8689. Description: Protective Activity in Mice. The series is classed as in vivo. Conditions: S.C., single dose one hour after intraperitoneal infection. Here is the method: as §1, §2
In another series the test system is Escherichia coli 10536. Description: Protective Activity in Mice. Format: in vivo. Conditions: S.C., single dose one hour after intraperitoneal infection. As to the method:
as §1, §2

The subject of series [5] is Staphylococcus aureus Gray. Briefly: Protective Activity in Mice. The series is classed as in vivo. To be noted: S.C., single dose one hour after intraperitoneal infection. As to the method: as §1, §2
Series [6] can be described thus: pKa (Chemical and Physical Properties of Verdamicin I). The series is classed as physicochemical. Conditions: base. The text has this: In table VI below are set forth physical properties of […] as the hydrated free nitrogen base and as the sulfuric acid addition salt (sulfate).
The next series is described as follows: in vivo. Conditions: mouse, iv.

Turning to `CN[C@@H]1[C@@H](O)[C@@H](O[C@@H]2[C@@H](O)[C@H](O[C@H]3OC(C(C)N)=CC[C@H]3N)[C@@H](N)C[C@H]2N)OC[C@]1(C)O` (stereo partly drawn) [Verdamicin I Sulfate], the “potency against its own base as the comparison standard” value in series [1] (own base as comparison standard) turned out to be 695 meg/mg.

On to `CN[C@@H]1[C@@H](O)[C@@H](O[C@@H]2[C@@H](O)[C@H](O[C@H]3OC(C(C)N)=CC[C@H]3N)[C@@H](N)C[C@H]2N)OC[C@]1(C)O` (stereo partly drawn) [Verdamicin I], for which the dose response curve entry in series [1] (gentamicin assay) is “parallel to that of gentamicin”. This compound had a zone of inhibition in series [1] (one meg. of standard) of 17.0 ± 1.3 mm. The “antibacterial activity in vitro” value in [2] was “broad spectrum of antibacterial activity”. Moreover, in series [3], the “in vivo antibacterial activity” value is recorded as “potent antibacterial agent”. Further, the ED50 is 1 mg/kg in the series on Streptococcus pyogenes C (Streptococcus pyogenes, sc, 1 h, read-out: PD50); 2 mg/kg in series [4] (Pseudomonas aeruginosa, 8689, sc, 1 h, read-out: PD50); 1.5 mg/kg with Escherichia coli 10536 (Escherichia coli, 10536, sc, 1 h, read-out: PD50); 2.5 mg/kg in series [5] (Staphylococcus aureus, sc, 1 h, read-out: PD50). In [6], the pKa was determined as 8.1. The compound also registered an LD50 in the series “in vivo” of 75 mg/kg.

As to gentamicin [reference compound], the PD50 in the series with Streptococcus pyogenes C was 5.0 mg/kg; in series [4] it was 1.7 mg/kg; with Escherichia coli 10536 it was 1.7 mg/kg; in series [5] it was 2.4 mg/kg.

Source of the values: patent US3988316A, “Antibiotics sisomicin and verdamicin I and complex containing same” (Schering Corporation, priority 1975, dated 1976).
